Results: US20230190866A1, “PEPTIDE FOR THE TREATMENT OF CYTOKINE STORM SYNDROME” (priority 2020, published 2023)
Ends that are not written are not given here.

Key:
[1] = patients, pharmaceutical composition
Description: The peptide identified as SEQ ID NO: 1 is obtained by chemical synthesis. Through experiments such as those described in the present invention, those immunological mechanisms induced by the peptide that contribute in the control of hyperinflammation can be evaluated.

[2] = system: acute respiratory distress syndrome in patients with Covid-19; conditions: ten treated Covid-19 patients

For “SIDLKDKYKNIGAKLVQLVANNTNEEA [peptide identified as SEQ ID NO: 1]”, the serious adverse events [1] was “No serious adverse events were identified”, the tolerability [1] was “well tolerated” and the symptoms of immunosuppression [2] was “did not present any symptoms of immunosuppression”.
